The results in this text go back to patent US20250109143A1, “KLF2 INDUCING DEUTERATED COMPOUNDS AND USES THEREOF” (Riparian Pharmaceuticals, Inc., priority 2023, published 2025).

Experiment [1] relates to primary human endothelial cells expressing luciferase under the control of the KLF2 promoter. The experiment can be described thus: KLF2 induction cell based bioassay (GLuc KLF2 concentration response, luciferase reporter). To be noted: 24 hours incubation, 11-point concentration response; for IC50: 24 h, read-out: GLuc KLF2 Conc Response (IC50) Avg; for EC50: EC50 = concentration where normalized curve passes 0.5, read-out: GLuc KLF2 Conc Response (EC50) Ave. An excerpt: In endothelial cell culture media, a stock of the highest working concentration was made at no more than 1% DMSO vehicle. The working stock was then serially diluted 1:2 to make an 11-point concentration response curve. Included in the 96-well plate were 2 reference compounds with known potencies. A DMSO column was included in the 96-well plate at the highest percent vehicle of the working stocks. The 96-well cell culture plate of primary human endothelial cells expressing luciferase under the control of the KLF2 promoter was dosed with 200 μL per well of the dilution series as well as the DMSO control column. The assay plate was incubated at 37° C. for 24 hours. The supernatant was collected at 24 hours.
20 μL of the supernatant was then placed in a 384-well plate with optical duplicates. The corners of the plate received 20 μL of the Gaussia Luciferase Enzyme positive control, as well as 20 μL of the 50 μM Coelenterizine substrate. The plate read is then calibrated using the control, and read using a Molecular Devices SpectraMax iD5, providing luminescence in relative light units (RLU). The plate reader injected 20 μL of the 50 μM Coelenterazine substrate immediately before taking the RLU measurement for each well.
The sample signals were then normalized to the average signal of the DMSO column, as well as to the maximum signal of one of the reference compounds, as shown in the equations below: […]
The EC50 of each compound is then defined as when the concentration response curve passes 0.5.

Another experiment concerns KLF2. The experiment can be described thus: qPCR KLF2 concentration response. It is filed as cell-based. The conditions noted are these: read-out: qPCR KLF2 Conc Response (EC50). (In qPCR the cycle at which signal appears reflects the starting amount.)

One may read the IC50 as the midpoint of a concentration-inhibition curve. In general, EC50 refers to the midpoint of the concentration-response curve. Take `C#CCCN1C(=O)c2oc3ccccc3c2OC[C@]1(C)C(=O)NCc1ccccc1OC` [Example 6]: in experiment [1], the IC50 turned out to be 70 nM and the EC50 amounted to 20 nM. Further, the EC50 in the experiment with KLF2 stood at 10 nM.
For `C#CCCN1C(=O)c2oc3ccccc3c2OCC1(C)C(=O)NCc1ccccc1OC` (centres unmarked) [Example 5], in experiment [1], the half-inhibitory concentration (IC50) stood at 150 nM and the EC50 is 40 nM.
Consider `COc1ccccc1CNC(=O)C1(C)COc2c(oc3ccccc23)C(=O)N1CC(C)(C)OC` (centres unmarked) [Example 3], for which, in experiment [1], the IC50 is 340 nM. In addition, the EC50 in experiment [1] was 60 nM; with KLF2, 10 nM.
On the same counts, the results for `COc1ccccc1CNC(=O)C1(C)COc2c(oc3ccccc23)C(=O)N1CC1(F)CCC1` (centres unmarked) [Example 2] are 200 nM, 20 nM and 10 nM.
